Experimental data taken from patent US20240247015A1, “PHOSPHORUS DERIVATIVES AS NOVEL SOS1 INHIBITORS” (BAYER AKTIENGESELLSCHAFT, priority 2021, published 2024).

molecular target: interaction of human SOS1 (SOS1) with human K-RasG12C (Homo sapiens (Human), UniProt Q07889); assay: Biochemical assay: hK-RasG12C interaction assay with hSOS1 (HTRF); assay type: binding; details: GST-hK-RasG12C with His-hSOS1, 60 min incubation at 20° C., mean, read-out: K-RasG12C - SOS interaction assay IC50 (mean)
Summary of the method: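 Compounds, duplicates at 11 concentrations from 0.073 nM to 20 µM, were preincubated 2 min with 10 nM GST-hK-RasG12C, then 20 nM His-hSOS1 was added, all at 20 °C. After 60 min, 665/620 nm HTRF ratio normalized to DMSO and SOS1-free controls; IC50 by 4-parameter fit.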

interaction of human SOS1 (SOS1) with human K-RasG12C, sequence (Q07889 564-1049 limits assumed): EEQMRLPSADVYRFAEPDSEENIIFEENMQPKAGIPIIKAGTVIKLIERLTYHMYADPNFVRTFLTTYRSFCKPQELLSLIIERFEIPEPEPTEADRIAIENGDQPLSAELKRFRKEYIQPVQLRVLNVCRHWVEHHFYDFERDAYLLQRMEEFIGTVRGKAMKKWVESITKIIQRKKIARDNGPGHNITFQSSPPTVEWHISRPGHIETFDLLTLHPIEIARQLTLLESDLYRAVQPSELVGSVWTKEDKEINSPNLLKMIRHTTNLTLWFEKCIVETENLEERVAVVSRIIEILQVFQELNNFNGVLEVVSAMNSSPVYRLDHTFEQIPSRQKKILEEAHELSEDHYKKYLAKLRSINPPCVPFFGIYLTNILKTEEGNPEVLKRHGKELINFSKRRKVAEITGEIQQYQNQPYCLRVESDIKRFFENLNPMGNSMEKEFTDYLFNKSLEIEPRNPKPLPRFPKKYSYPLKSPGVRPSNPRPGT

| SMILES | IC50 [nM] |
| --- | --- |
| Cc1nc(N[C@H](C)c2cccc(C(F)(F)CNS(C)(=O)=O)c2F)c2cc(P3(=O)CCN(C(=O)C4CC4)CC3)ncc2n1 [Example 179, N-(2-{3-[(1R)-1-({6-[1-(cyclopropanecarbonyl)-4-oxo-1,4lambda^5-azaphosphinan-4-yl]-2-methylpyrido[3,4-d]pyrimidin-4-yl}amino)ethyl]-2-fluorophenyl}-2,2-difluoroethyl)methanesulfonamide] | 3.68 |
| CC(=O)NCC(F)(F)c1cccc([C@@H](C)Nc2nc(C)nc3cnc(P4(=O)CCN(C(=O)C5CC5)CC4)cc23)c1F [Example 180, N-(2-{3-[(1R)-1-({6-[1-(cyclopropanecarbonyl)-4-oxo-1,4lambda^5-azaphosphinan-4-yl]-2-methylpyrido[3,4-d]pyrimidin-4-yl}amino)ethyl]-2-fluorophenyl}-2,2-difluoroethyl)acetamide] | 4.6 |
| Cc1nc(N[C@H](C)c2cccc(C(F)(F)CN(C)S(C)(=O)=O)c2F)c2cc(P3(=O)CCN(C(=O)C4CC4)CC3)ncc2n1 [Example 181, N-(2-{3-[(1R)-1-({6-[1-(cyclopropanecarbonyl)-4-oxo-1,4lambda^5-azaphosphinan-4-yl]-2-methylpyrido[3,4-d]pyrimidin-4-yl}amino)ethyl]-2-fluorophenyl}-2,2-difluoroethyl)-N-methylmethanesulfonamide] | 2.95 |
| CC(=O)N(C)CC(F)(F)c1cccc([C@@H](C)Nc2nc(C)nc3cnc(P4(=O)CCN(C(=O)C5CC5)CC4)cc23)c1F [Example 182, N-(2-{3-[(1R)-1-({6-[1-(cyclopropanecarbonyl)-4-oxo-1,4lambda^5-azaphosphinan-4-yl]-2-methylpyrido[3,4-d]pyrimidin-4-yl}amino)ethyl]-2-fluorophenyl}-2,2-difluoroethyl)-N-methylacetamide] | 3.95 |
| Cc1nc(N[C@H](C)c2cccc(C(F)F)c2F)c2cc(P3(=O)CCN(C(N)=O)CC3)ncc2n1 [Example 183] | 8.38 |
| CCOC(=O)N1CCP(=O)(c2cc3c(N[C@H](C)c4cccc(C(F)F)c4F)nc(C)nc3cn2)CC1 [Example 187] | 12 |
| CC(=O)N1CCP(=O)(c2cc3c(N[C@H](C)c4cccc(C(F)F)c4C)nc(C)nc3cn2)CC1 [Example 190] | 5.9 |
| CC(=O)N1CCP(=O)(c2cc3c(N[C@H](C)c4cccc(C(F)(F)F)c4)nc(C)nc3cn2)CC1 [Example 192] | 11.7 |
| CC(=O)NCC(F)(F)c1cccc([C@@H](C)Nc2nc(C)nc3cnc(P4(=O)CCN(C(C)=O)CC4)cc23)c1F [Example 199] | 4.61 |
| CC(=O)N1CCP(=O)(c2cc3c(N[C@H](C)c4cccc(C(F)(F)CN(C)S(C)(=O)=O)c4F)nc(C)nc3cn2)CC1 [Example 200] | 3.95 |
| CC(=O)N(C)CC(F)(F)c1cccc([C@@H](C)Nc2nc(C)nc3cnc(P4(=O)CCN(C(C)=O)CC4)cc23)c1F [Example 201] | 5.81 |
| CC(=O)N1CCP(=O)(c2cc3c(N[C@H](C)c4cccc(C(F)(F)CN(C(C)=O)C5CC5)c4F)nc(C)nc3cn2)CC1 [Example 202] | 3.89 |
| Cc1nc(N[C@H](C)c2cccc(C(F)(F)F)c2)c2cc(P3(=O)CCN(C(=O)C(F)F)CC3)ncc2n1 [Example 205] | 9.64 |
| Cc1nc(N[C@H](C)c2cccc(C(F)F)c2F)c2cc(P3(=O)CCN(C(=O)C(F)F)CC3)ncc2n1 [Example 206] | 3.77 |
| Cc1nc(N[C@H](C)c2cccc(C(F)(F)F)c2C)c2cc(P3(=O)CCN(C(=O)C(F)F)CC3)ccc2n1 [Example 207] | 6.84 |

Further lines, results first:

| IC50 [nM] | SMILES |
| --- | --- |
| 4.78 | Cc1nc(N[C@H](C)c2cccc(C(F)(F)C(C)(C)O)c2F)c2cc(P3(=O)CCN(C(=O)C4CC4)CC3)ncc2n1 [Example 172, 1-(cyclopropanecarbonyl)-4-[4-{{(1R)-1-[3-(1,1-difluoro-2-hydroxy-2-methylpropyl)-2-fluorophenyl]ethyl}amino)-2-methylpyrido[3,4-d]pyrimidin-6-yl]-1,4lambda^5-azaphosphinan-4-one] |
| 5.62 | Cc1nc(N[C@H](C)c2cccc(C(F)(F)F)c2C)c2cc(P3(=O)CCN(C(=O)C4(O)CC4)CC3)ncc2n1 [Example 173, 1-(1-hydroxycyclopropane-1-carbonyl)-4-[2-methyl-4-({(1R)-1-[2-methyl-3-(trifluoromethyl)phenyl]ethyl}amino)pyrido[3,4-d]pyrimidin-6-yl]-1,4lambda^5-azaphosphinan-4-one] |
| 3.89 | Cc1nc(N[C@H](C)c2cccc(C(F)(F)F)c2C)c2cc(P3(=O)CCN(C(=O)C4CC4)CC3)ncc2n1 [Example 174, 1-(cyclopropanecarbonyl)-4-[2-methyl-4-({(1R)-1-[2-methyl-3-(trifluoromethyl)phenyl]ethyl}amino)pyrido[3,4-d]pyrimidin-6-yl]-1,4lambda^5-azaphosphinan-4-one] |
| 9.07 | Cc1nc(N[C@H](C)c2cccc(C(F)(F)F)c2C)c2cc(P3(=O)CCN(C(=O)c4cnn(C)c4)CC3)ncc2n1 [Example 175, 4-[2-methyl-4-{{(1R)-1-[2-methyl-3-(trifluoromethyl)phenyl]ethyl}amino)pyrido[3,4-d]pyrimidin-6-yl]-1-(1-methyl-1H-pyrazole-4-carbonyl)-1,4lambda^5-azaphosphinan-4-one] |
| 6.82 | CO[C@@H](C)C(=O)N1CCP(=O)(c2cc3c(N[C@H](C)c4cccc(C(F)(F)F)c4C)nc(C)nc3cn2)CC1 [Example 176, 1-[(2S)-2-methoxypropanoyl]-4-[2-methyl-4-{{(1R)-1-[2-methyl-3-(trifluoromethyl)phenyl]ethyl}amino)pyrido[3,4-d]pyrimidin-6-yl]-1,4lambda^5-azaphosphinan-4-one] |
| 5.01 | COCC(=O)N1CCP(=O)(c2cc3c(N[C@H](C)c4cccc(C(F)(F)F)c4C)nc(C)nc3cn2)CC1 [Example 177, 1-(methoxyacetyl)-4-[2-methyl-4-({(1R)-1-[2-methyl-3-(trifluoromethyl)phenyl]ethyl}amino)pyrido[3,4-d]pyrimidin-6-yl]-1,4lambda^5-azaphosphinan-4-one] |
| 7.94 | Cc1nc(N[C@H](C)c2cccc(C(F)(F)F)c2C)c2cc(P3(=O)CCN(C(=O)C4(CO)CC4)CC3)ncc2n1 [Example 178, 1-[1-(hydroxymethyl)cyclopropane-1-carbonyl]-4-[2-methyl-4-{{(1R)-1-[2-methyl-3-(trifluoromethyl)phenyl]ethyl}amino)pyrido[3,4-d]pyrimidin-6-yl]-1,4lambda^5-azaphosphinan-4-one] |
| 5.62 | Cc1nc(N[C@H](C)c2cccc(C(F)(F)F)c2C)c2cc(P3(=O)CCN(C(=O)NC4CC4)CC3)ncc2n1 [Example 184] |
| 3.86 | Cc1nc(N[C@H](C)c2cccc(C(F)(F)F)c2C)c2cc(P3(=O)CCN(C(=O)NCC(F)F)CC3)ncc2n1 [Example 185] |
| 4.71 | Cc1nc(N[C@H](C)c2cccc(C(F)(F)F)c2C)c2cc(P3(=O)CCN(C(N)=O)CC3)ncc2n1 [Example 186] |
| 6.34 | Cc1nc(N[C@H](C)c2cccc(C(F)(F)F)c2C)c2cc(P3(=O)CCN(C(=O)N(C)C)CC3)ncc2n1 [Example 188] |
| 20.6 | CCOC(=O)N1CCP(=O)(c2cc3c(N[C@H](C)c4cccc(C(F)(F)F)c4C)nc(C)nc3cn2)CC1 [Example 189] |
| 8.09 | CC(=O)N1CCP(=O)(c2cc3c(N[C@H](C)c4cccc(C(F)(F)F)c4Cl)nc(C)nc3cn2)CC1 [Example 191] |
| 4.1 | CC(=O)N1CCP(=O)(c2cc3c(N[C@H](C)c4cccc(C(F)(F)C(C)(C)O)c4F)nc(C)nc3cn2)CC1 [Example 193] |
| 12.1 | CC(=O)N1CCP(=O)(c2cc3c(N[C@H](C)c4cccc(C(F)(F)F)c4C)nc(C(F)(F)F)nc3cn2)CC1 [Example 194] |
| 6.56 | CC(=O)N1CCP(=O)(c2cc3c(N[C@H](C)c4cccc(C(F)(F)F)c4C)nc(C(F)F)nc3cn2)CC1 [Example 195] |
| 2.38 | CC(=O)N1CCP(=O)(c2cc3c(N[C@H](C)c4cccc(C(F)(F)F)c4C)nc(Cl)nc3cn2)CC1 [Example 196] |
| 7.4 | CC(=O)N1CCP(=O)(c2ccc3nc(C)nc(N[C@H](C)c4cccc(C(F)(F)F)c4C)c3c2)CC1 [Example 197] |
| 5.65 | Cc1nc(N[C@H](C)c2cccc(C(F)(F)F)c2C)c2cc(P3(=O)CCN(C(=O)C(F)F)CC3)ncc2n1 [Example 203] |
| 5.96 | Cc1nc(N[C@H](C)c2cccc(C(F)(F)F)c2Cl)c2cc(P3(=O)CCN(C(=O)C(F)F)CC3)ncc2n1 [Example 204] |
